Results as given in US5861424A, “Composition and method for treating cancer” (priority 1995, dated 1999).
Like-named read-outs stand apart in the source and are kept apart here.

Experiments:
[1] = test system: human melanoma LOX; experiment: Survival of nude mice implanted with human melanoma LOX; type: in vivo, human melanoma in male athymic Swiss nu/nu mouse; details: Mus musculus, ip, 24 h, read-out: T/C (survival)
Protocol: LOX, a human melanoma cell line, grown subcutaneously in nude mice was excised, trypsinized to yield a single cell suspension using a metal grid with a […]. Red blood cells were lysed by incubation with 0.17 molar ammonium chloride at 4° C. for 20 minutes. Five million viable trypan blue negative cells made up in 0.1 ml of Dulbecco modified Eagles' medium (DME) were injected into the peritoneal cavity of a male athymic Swiss nu/nu mouse. The control group and each treatment group consisted of 5 to 10 mice. Treatment was commenced the following day by intraperitoneal injection.
Ten control mice received 0.25 ml of 2% dextrose on those days the treated groups were injected with the compounds of this invention. The compounds of the General Formulas. (1) to (6) used in this invention which were tested are listed in Table VIII below and the results obtained are shown in Table VIII and FIG. 1-6 of the accompanying drawings. T/C is the ratio, expressed as a percentage of the mean survival age of the treated group to the mean survival age of the untreated control group.

[2] = test system: human colon carcinoma cell line CX-1; experiment: Colony formation assay, human colon carcinoma CX-1; type: cell-based; details: Table III; for IC50: Homo sapiens, Colon carcinoma cell, read-out: CX-1 (IC50); for IC50 / CX-1 (IC50): 24 h treatment, colony count after 7 to 10 days; for Selectivity (ratio of IC50 for CV-1 and IC50 for CX-1): CV-1/CX-1
[3] = test system: normal monkey kidney epithelial cell line CV-1; experiment: Colony formation assay, normal monkey kidney epithelial cells CV-1; details: for IC50: Primates, Epithelial cell;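 on all read-outs here: colonies visualized by crystal violet staining, incubation at 37 °C, IC50 relative to untreated wells given culture medium alone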
Protocol: Human colon carcinoma cell line CX-1 or normal monkey kidney epithelial cell line CV-1 was chosen as representatives of cancer cells and normal cells, respectively. […] CX-1 cells (2,000 cells/well) and CV-1 cells (1,000 cells/well) were plated in 24-well plastic culture plates. […] The control received culture media only. Cells were treated with compounds of General Formulas (1) to (6) at 37° C. for 24 hours. After rinsing with fresh culture medium three times, the cells were further incubated at 37° C. for 7 to 10 days. Cell colonies were fixed and stained with 2% crystal violet in 70% ethanol for 10 minutes and rinsed in water. […] The selectivity is defined as the ratio of IC50 for CV-1 and IC50 for CX-1.

[4] = test system: human pancreatic carcinoma CRL 1420 cell line; experiment: Colony formation assay, human pancreatic carcinoma CRL 1420; type: cell-based; details: Table VII; for IC50: Homo sapiens, 24 h; for Selectivity (CV-1 IC50 / CRL-1420 IC50): CV-1/CRL-1420
Text: (§1) The control received culture media only.
The Selectivity values, CRL 1420 values and CV-1 values for compounds of the General Formulas (1) to (6) used in the present invention are shown in Table VII below.

[5] = test system: human bladder carcinoma EJ cell line; experiment: Colony formation assay, human bladder carcinoma EJ; type: cell-based; details: Table IV; for IC50: Homo sapiens, EJ, 24 h, 24 h treatment, read-out: EJ (IC50); for Selectivity (CV-1 IC50 / EJ IC50): CV-1/EJ
Text: as §1

[6] = test system: human melanoma LOX cell line; experiment: Colony formation assay, human melanoma LOX; type: cell-based; details: Table V; for IC50: Homo sapiens, LOX, 24 h, 24 h treatment, read-out: LOX (IC50); for Selectivity (CV-1 IC50 / LOX IC50): CV-1/LOX
Text: as §1

[7] = test system: human breast carcinoma MCF-7 cell line; experiment: Colony formation assay, human breast carcinoma MCF-7; type: cell-based; details: for IC50: Homo sapiens, MCF7, 24 h, read-out: MCF-7 (IC50); for Selectivity (CV-1 IC50 / MCF-7 IC50): CV-1/MCF-7
Text: as §1
The Selectivity values, MCF-7 values and CV-1 values for compounds of the General Formulas (1) to (6) used in the present invention are shown in Table VI below.

[8] = read-out: CV-1 (IC50), Table III, 24 h treatment, colony count after 7 to 10 days
[9] = read-out: CV-1 (IC50), Table VII
[10] = read-out: CV-1 (IC50), Table IV
[11] = read-out: CV-1 (IC50), Table VI

Compound | IC50 [2] [µg/mL] | Selectivity (ratio of IC50 for CV-1 and IC50 for CX-1) [2] | IC50 [3, 8] [µg/mL] | IC50 ([4]; 24 h treatment) [µg/mL] | Selectivity (CV-1 IC50 / CRL-1420 IC50) [4] | IC50 [5] [µg/mL] | IC50 [6] [µg/mL] | Selectivity (CV-1 IC50 / LOX IC50) [6] | further results
CCN1C(=CC=c2sc(=CC3=[N+](CC)CCS3)n(CC)c2=O)C=Cc2ccccc21 [Compound 244] |  |  |  |  |  |  |  |  | response vs control in vivo at 10 mg/kg ([1]; i.p. on day 1, 3, 5, 7, 9): 153%
CCN1C(=CC=c2sc(=Cc3sc4c5ccccc5ccc4[n+]3C)n(CC)c2=O)Sc2ccc3ccccc3c21 [Compound 33] | 0.02 | 1000 | 20 |  |  |  |  |  | response vs control in vivo at 10 mg/kg ([1]; i.p. on day 1, 2, 3, 4, 5, 7, 8, 9, 10, 11): 173%
CCC[n+]1c(C=c2sc(=CC=C3Sc4c(ccc5ccccc45)N3CC)c(=O)n2CC)sc2cc(C)c(OCC)cc21 [Compound 6] | 0.025 | 400 |  |  |  |  |  |  | response vs control in vivo at 5 mg/kg ([1]; i.p. on day 1, 3, 5, 7): 126%; IC50 ([3]; read-out: CV-1 (IC50)): 10 µg/mL
CCN1C(=CC=c2sc(=Cc3sc4c5ccccc5ccc4[n+]3CCO)n(CC)c2=O)Sc2ccc3ccccc3c21 [Compound 53] | 0.05 | 400 | 20 | 0.18 | 111 |  |  |  | response vs control in vivo at 20 mg/kg ([1]; i.p. on day 1, 3, 6, 9, 13, 16): 222%; IC50 [3, 9]: 20 µg/mL
CCN1CCSC1=CC=c1sc(=Cc2sc3c4ccccc4ccc3[n+]2CC)n(CC)c1=O [Compound 150] |  | 100 |  |  |  |  |  |  | CX-1 (IC50) [2]: 0.01 µg/mL; response vs control in vivo at 5 mg/kg ([1]; i.p. on day 1, 2, 9, 13, 16): 216%; CV-1 (IC50) ([3]; Table III, 24 h treatment, colony count after 7 to 10 days): 1 µg/mL
CCN1C(=CC=c2sc(=Cc3sc4c5ccccc5ccc4[n+]3C)n(CC)c2=O)Sc2ccc3ccccc3c21 [Compound 49] |  | 667 |  | 0.075 | 267 | 0.045 | 0.075 | 267 | CX-1 (IC50) [2]: 0.03 µg/mL; Selectivity (CV-1 IC50 / EJ IC50) [5]: 444; IC50 ([7]; Table VI, 24 h treatment): 0.06 µg/mL; Selectivity (CV-1 IC50 / MCF-7 IC50) ([7]; Table VI): 333; IC50 [3, 10]: 20 µg/mL; IC50 ([3]; read-out: CV-1 (IC50), Table V): 20 µg/mL; IC50 [3, 11]: 20 µg/mL; IC50 [3, 9]: 20 µg/mL
CCN1C(=CC=c2sc(=Cc3sc4c5ccccc5ccc4[n+]3CC)n(CC)c2=O)Sc2ccc3ccccc3c21 [Compound 31] | 0.025 | 400 | 10 |  |  |  |  |  | response vs control in vivo at 40 mg/kg ([1]; 40 mg/kg, i.p. on day 1, 2, 3, 4, 8, 10, 17): 169%
CCN1C(=CC=c2oc(=Cc3sc(-c4ccccc4)c(-c4ccccc4)[n+]3CC)n(CC)c2=O)Oc2ccccc21 [Compound 330] | 0.025 | 100 | 2.5 |  |  |  |  |  | response vs control in vivo at 5 mg/kg ([1]; i.p. on day 1, 3, 5, 7, 9): 128%
CCN1C(=CC=c2sc(=Cc3sc4c5ccccc5ccc4[n+]3CC)n(CC)c2=O)Sc2ccc3ccccc3c21 [Compound 51] |  | 333 |  | 0.07 | 286 | 0.04 | 0.09 | 222 | CX-1 (IC50) [2]: 0.03 µg/mL; response vs control in vivo at 20 mg/kg ([1]; i.p. on day 1, 2, 3, 6, 9, 13): 174%
CCN1C(=CC=c2sc(=Cc3sc4ccccc4[n+]3CC)n(CC)c2=O)Sc2ccc3ccccc3c21 [Compound 37] | 0.02 | 250 |  |  | 167 | 0.03 | 0.05 | 100 | Selectivity (CV-1 IC50 / EJ IC50) [5]: 167; MCF-7 (IC50) ([7]; Table VI, 24 h treatment): 0.05 µg/mL; Selectivity (CV-1 IC50 / MCF-7 IC50) ([7]; Table VI): 100; CRL-1420 (IC50) ([4]; 24 h treatment): 0.03 µg/mL; IC50 [3, 10]: 5 µg/mL; IC50 ([3]; read-out: CV-1 (IC50), Table V): 5 µg/mL
CCN1CCSC1=CC=c1sc(=Cc2sc3ccccc3[n+]2CCOC)n(CC)c1=O [Compound 145] | 0.05 | 200 |  | 0.082 | 122 | 0.082 | 0.064 | 156 | Selectivity (CV-1 IC50 / EJ IC50) [5]: 122; IC50 ([7]; Table VI, 24 h treatment): 0.1 µg/mL; Selectivity (CV-1 IC50 / MCF-7 IC50) ([7]; Table VI): 100; IC50 ([3]; read-out: CV-1 (IC50)): 10 µg/mL
CCN1C(=CC=c2sc(=Cc3sc4c5ccccc5ccc4[n+]3CC)n(CC)c2=O)N(CC(F)(F)C(F)F)c2cc(C(F)(F)F)ccc21 [Compound 230] | 0.05 | 375 | 15 | 0.05 | 300 | 0.05 | 0.06 | 200 | Selectivity (CV-1 IC50 / EJ IC50) [5]: 300; IC50 [7]: 0.09 µg/mL; Selectivity (CV-1 IC50 / MCF-7 IC50) ([7]; Table VI): 167; IC50 [3, 10]: 15 µg/mL; IC50 ([3]; read-out: CV-1 (IC50), Table V): 15 µg/mL; IC50 [3, 11]: 15 µg/mL; IC50 [3, 9]: 15 µg/mL
CCN1C(C)=CSC1=CC=c1sc(=Cc2sc3ccccc3[n+]2CC)n(CC)c1=O [Compound 96] |  | 667 |  |  |  |  | 0.09 | 222 | CX-1 (IC50) [2]: 0.03 µg/mL; response vs control in vivo at 2 mg/kg ([1]; 2 mg/kg, i.p. on day 1, 2, 3*, 6*, 9*, 13*, 16* (*4 mg/kg)): 253%; IC50 ([3]; read-out: CV-1 (IC50), Table V): 20 µg/mL
CCN1C(=CC=c2sc(=Cc3scc[n+]3CC)n(CC)c2=O)Sc2ccc3ccccc3c21 [Compound 41] |  |  |  | 0.05 | 120 |  |  |  | response vs control in vivo at 5 mg/kg ([1]; i.p. on day 1, 5, 9): 128%; IC50 [3, 9]: 1.5 µg/mL
CCn1c(=Cc2sc(-c3ccccc3)c(-c3ccccc3)[n+]2CC)sc(=CC=C2N(C)c3ccccc3C2(C)C)c1=O [Compound 204] |  |  |  |  |  |  |  |  | response vs control in vivo at 5 mg/kg ([1]; i.p. on day 1, 4, 7, 10, 13, 16, 19, 22): 174%
